Here are results for 6 compounds from ChEMBL document CHEMBL1201862, “PubChem BioAssay data set” (2004).

Assay [1] relates to Streptococcus sp. 'group A'. Nature of the assay: Streptococcus pyogenes SK(-)GAS viability under kanamycin – luminescence, BacTiterGlo, confirmation, counter-screen for streptokinase expression inhibitor project, dose response (AID 1900). The assay is classed as functional, organism-based.
Another assay deals with T1, Streptokinase A (Streptococcus pyogenes serotype M1, UniProt P10520).
T1 sequence (P10520 whole entry): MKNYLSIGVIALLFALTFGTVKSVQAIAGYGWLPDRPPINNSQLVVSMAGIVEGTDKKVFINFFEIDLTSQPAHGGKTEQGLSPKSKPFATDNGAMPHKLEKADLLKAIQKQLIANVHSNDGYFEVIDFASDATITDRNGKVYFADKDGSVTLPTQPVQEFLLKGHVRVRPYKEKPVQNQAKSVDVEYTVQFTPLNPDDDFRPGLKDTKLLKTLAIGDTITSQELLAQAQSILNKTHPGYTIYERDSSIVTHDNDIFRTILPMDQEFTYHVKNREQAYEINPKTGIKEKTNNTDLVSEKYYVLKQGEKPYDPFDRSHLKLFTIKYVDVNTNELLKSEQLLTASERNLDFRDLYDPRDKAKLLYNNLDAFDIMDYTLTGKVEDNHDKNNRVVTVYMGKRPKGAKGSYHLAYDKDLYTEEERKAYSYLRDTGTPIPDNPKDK
Nature of the assay: viability-normalized secreted streptokinase activity reduction – plasminogen activation absorbance, OD405, dose response (AID 1914).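 Note: secreted streptokinase activity via plasminogen activation per viability signal from cell pellet.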 The assay is classed as functional, Streptococcus pyogenes M1 GAS.

A further assay concerns Streptococcus. The assay can be described thus: GAS UMAA2166 growth inhibition – luminescence, BacTiterGlo, counter-screen for streptokinase expression inhibitor project, dose response (AID 1915).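 Note: potency for reduction of bacterial viability or growth.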 The format is functional, organism-based. On the technique in general: The purpose of a counterscreen is to sort out artefacts and off-target activity.
The next assay deals with Salmon testes DNA. The assay can be described thus: acridine orange-DNA binding displacement – biochemical, fluorescence polarization, cherry-picked samples, set 2, artefact control for KSHV LANA DNA-binding inhibitor project, dose response (AID 504727). Also noted: species or system Salmonidae. In general terms: Fluorescence polarisation rises when a labelled molecule tumbles more slowly, as on binding a larger partner.

The target of assay [2] is FAD-linked sulfhydryl oxidase ALR (Homo sapiens, UniProt P55789). Nature of the assay: ALR-catalysed DTT oxidation blockers – biochemical, H2O2 detection, luminescence, cherry-pick, dose response (AID 493248).
The next assay concerns the target T2, Cysteine protease ATG4B (Homo sapiens, UniProt Q9Y4P1).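 Note: Fluorescence-based dose-response confirmation assay measuring inhibition of ATG4B activity.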
T2 sequence (Q9Y4P1 whole entry): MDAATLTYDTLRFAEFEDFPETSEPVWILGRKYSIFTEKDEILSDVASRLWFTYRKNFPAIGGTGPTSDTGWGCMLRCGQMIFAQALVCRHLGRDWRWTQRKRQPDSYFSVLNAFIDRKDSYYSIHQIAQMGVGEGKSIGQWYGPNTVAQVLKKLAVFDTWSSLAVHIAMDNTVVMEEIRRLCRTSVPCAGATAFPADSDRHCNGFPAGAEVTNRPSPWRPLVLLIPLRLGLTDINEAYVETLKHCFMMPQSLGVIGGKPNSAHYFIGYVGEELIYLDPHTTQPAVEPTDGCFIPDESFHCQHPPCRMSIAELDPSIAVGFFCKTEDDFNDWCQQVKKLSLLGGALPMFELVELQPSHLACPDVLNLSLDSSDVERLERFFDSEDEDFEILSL
The format is functional.

For assay [3], the target named is T3, Endoribonuclease toxin MazF (Escherichia coli K-12, UniProt P0AE70).
T3 sequence (P0AE70 whole entry): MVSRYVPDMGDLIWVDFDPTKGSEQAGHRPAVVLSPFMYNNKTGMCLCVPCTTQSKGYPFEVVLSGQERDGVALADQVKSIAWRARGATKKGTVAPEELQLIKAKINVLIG
Nature of the assay: activation of MazEF endoribonuclease cleavage – biochemical, fluorescence, single-stranded RNA substrate, uHTS hits, dose response (AID 588481). The assay is classed as functional.

In another assay the target is Phospholipase A2 (Homo sapiens, UniProt P04054). The format is functional.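 Note: confirmatory dose-response counterscreen on phospholipase A2, testing hits that came from an ultra-high-throughput screen for ATG4B inhibitors.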
Assay [4] concerns the target T3, Endoribonuclease toxin MazF. The assay can be described thus: substrate-only fluorescence increase artefacts – biochemical, single-stranded RNase substrate, counter-screen for MazEF activator project, dose response (AID 588502). The format is functional.
The nature of assay [5]: BJeHLT cell viability loss – BJeHLT cells, dry powder, counter-screen for Ras selective lethality project, dose response (AID 493052). The assay is classed as functional, cell-based. As to conditions: Homo sapiens.
Assay [6] in a line: DRD BJ cell killing, Ras synthetic lethality – DRD BJ fibroblasts, HRASV12, dry powder, dose response (AID 493049). The assay is classed as functional, cell-based.
Assay [7] in a line: HRAS-V12 fibroblast viability reduction – cell-based, Alamar Blue, dry powder, Ras selective lethality project, primary screen (AID 493045). As to conditions: BJeLR. The format is functional. For orientation: Resazurin is reduced to fluorescent resorufin, in cell work by metabolically active cells.
The nature of assay [8]: BJeH cell viability loss – BJeH cells, dry powder, counter-screen for Ras selective lethality project, dose response (AID 493054). The assay is classed as functional, cell-based.
For assay [9], the target named is Neuropeptides B/W receptor type 1 (Homo sapiens, UniProt P48145). Nature of the assay: Fluorescence-based dose response cell-based high throughput screening assay to identify antagonists of the G-protein coupled receptor 7 (GPR7). [Related pubchem assays: 1952 (Screening assay (GPR7 antagonists).), 1880 (Summary AID.)]. The format is functional.
Assay [10] deals with Melanin-concentrating hormone receptor 1 (Homo sapiens, UniProt Q99705). The assay can be described thus: Fluorescence-based counterscreen for antagonists of the G-protein coupled receptor 7 (GPR7): cell-based high throughput dose response assay to identify antagonists of the melanin-concentrating hormone receptor 1 (MCHR1). The assay is classed as functional.
The next assay has as its target Protein Rev (Human immunodeficiency virus type 1 group M subtype B (isolate HXB2)(HIV-1), UniProt P04618). Nature of the assay: blockers of HIV Rev/RRE RNA complex – biochemical, fluorescence polarization, HIV-1, dose response (AID 434976). The arrangement: species or system Human immunodeficiency virus 1.
The target of assay [11] is Female germline-specific tumor suppressor gld-1 (Caenorhabditis elegans, UniProt Q17339). The assay can be described thus: blockers of GLD-1/TGE RNA complex formation – biochemical, fluorescence polarization, C. elegans, dose response (AID 2802).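 Note: fluorescence polarization of labeled TGE RNA bound by purified gld-1 protein.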
Assay [12] concerns the target T4, Fibrinogen beta chain (Homo sapiens, UniProt P02675). Nature of the assay: Fluorescence polarization-based biochemical high throughput dose response assay to identify inhibitors that disrupt the binding of a cyclic peptide (Tn6) to the fibrin proteolytic product D-Dimer and fragment E complex [DD(E )].
The target of assay [13] is T4, Fibrinogen beta chain. The assay can be described thus: Fluorescence polarization-based biochemical high throughput dose response assay to identify inhibitors that disrupt the binding of a cyclic peptide (Tn7) to the fibrin proteolytic product D-Dimer and fragment E complex [DD(E )].
A further assay addresses ORF 73 (Human herpesvirus 8, UniProt O40947). The assay can be described thus: KSHV LANA DNA-binding disruption – biochemical, fluorescence polarization, cherry-picked samples, dose response (AID 504725).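 Note: fluorescence polarization of a labeled DNA duplex reporting LANA DNA binding; potency is for inhibitors that block LANA binding to the DNA.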 The arrangement: species or system Human gammaherpesvirus 8.
The target in assay [14] is T5, Eukaryotic translation initiation factor 2-alpha kinase 3 (Homo sapiens, UniProt Q9NZJ5). The assay can be described thus: Dose response cell-based high-throughput screening assay to measure PERK inhibition. [Related pubchem assays: 1416 ]. The assay is classed as functional.
The target of assay [15] is T5, Eukaryotic translation initiation factor 2-alpha kinase 3. The assay can be described thus: Counterscreen assay for PERK inhibitors: Dose response cell-based high throughput screening assay to measure inhibition of PERK at 6 hours. [Related pubchem assays: 1522, 1416 ]. The assay is classed as functional.

Molecules are shown by their SMILES. Active and inactive are the calls of the source.

T5 sequence (Q9NZJ5 whole entry): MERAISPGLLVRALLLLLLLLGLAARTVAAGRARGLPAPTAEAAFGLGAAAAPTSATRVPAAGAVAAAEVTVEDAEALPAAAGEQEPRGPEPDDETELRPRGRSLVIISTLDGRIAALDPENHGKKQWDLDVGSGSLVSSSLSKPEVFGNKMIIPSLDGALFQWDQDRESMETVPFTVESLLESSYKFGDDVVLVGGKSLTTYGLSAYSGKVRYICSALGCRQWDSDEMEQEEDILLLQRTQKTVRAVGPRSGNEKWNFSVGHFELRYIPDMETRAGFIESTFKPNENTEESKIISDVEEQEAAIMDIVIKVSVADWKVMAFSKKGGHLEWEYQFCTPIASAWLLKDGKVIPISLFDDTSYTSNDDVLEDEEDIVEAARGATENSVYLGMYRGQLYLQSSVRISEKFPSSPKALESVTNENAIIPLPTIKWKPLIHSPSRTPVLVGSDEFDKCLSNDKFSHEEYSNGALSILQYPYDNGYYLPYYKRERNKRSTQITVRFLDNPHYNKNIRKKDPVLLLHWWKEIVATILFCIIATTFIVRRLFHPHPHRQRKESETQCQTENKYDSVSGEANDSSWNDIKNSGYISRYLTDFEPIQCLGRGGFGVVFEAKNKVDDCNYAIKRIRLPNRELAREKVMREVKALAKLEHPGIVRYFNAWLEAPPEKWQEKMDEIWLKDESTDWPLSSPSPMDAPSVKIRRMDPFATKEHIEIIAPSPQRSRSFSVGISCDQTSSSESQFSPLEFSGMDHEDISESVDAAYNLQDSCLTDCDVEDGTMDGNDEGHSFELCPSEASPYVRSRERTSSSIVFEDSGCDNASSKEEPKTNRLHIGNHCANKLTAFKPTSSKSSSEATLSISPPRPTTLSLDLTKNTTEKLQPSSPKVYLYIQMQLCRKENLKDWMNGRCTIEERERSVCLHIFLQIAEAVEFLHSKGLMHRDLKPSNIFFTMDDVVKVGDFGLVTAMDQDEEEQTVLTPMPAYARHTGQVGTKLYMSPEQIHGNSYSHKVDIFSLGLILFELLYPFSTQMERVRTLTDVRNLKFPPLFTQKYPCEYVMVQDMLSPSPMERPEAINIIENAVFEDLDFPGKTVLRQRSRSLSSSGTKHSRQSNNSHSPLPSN
T4 sequence (P02675 whole entry, the tested form may be a part): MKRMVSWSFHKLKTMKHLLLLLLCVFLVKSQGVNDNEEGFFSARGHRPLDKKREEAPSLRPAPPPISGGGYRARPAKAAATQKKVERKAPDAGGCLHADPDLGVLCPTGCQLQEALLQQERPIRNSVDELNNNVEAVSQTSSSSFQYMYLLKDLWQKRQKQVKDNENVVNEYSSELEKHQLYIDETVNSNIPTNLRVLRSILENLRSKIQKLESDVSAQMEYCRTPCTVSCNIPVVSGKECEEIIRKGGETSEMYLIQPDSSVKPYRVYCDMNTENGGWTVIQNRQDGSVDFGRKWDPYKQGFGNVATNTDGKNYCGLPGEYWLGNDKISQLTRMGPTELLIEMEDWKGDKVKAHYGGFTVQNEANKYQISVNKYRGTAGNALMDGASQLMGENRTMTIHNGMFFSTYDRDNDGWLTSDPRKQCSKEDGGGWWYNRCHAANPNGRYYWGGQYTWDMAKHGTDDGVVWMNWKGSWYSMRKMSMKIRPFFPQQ
Chain of Female germline-specific tumor suppressor gld-1 (Q17339 whole entry, the tested form may be a part): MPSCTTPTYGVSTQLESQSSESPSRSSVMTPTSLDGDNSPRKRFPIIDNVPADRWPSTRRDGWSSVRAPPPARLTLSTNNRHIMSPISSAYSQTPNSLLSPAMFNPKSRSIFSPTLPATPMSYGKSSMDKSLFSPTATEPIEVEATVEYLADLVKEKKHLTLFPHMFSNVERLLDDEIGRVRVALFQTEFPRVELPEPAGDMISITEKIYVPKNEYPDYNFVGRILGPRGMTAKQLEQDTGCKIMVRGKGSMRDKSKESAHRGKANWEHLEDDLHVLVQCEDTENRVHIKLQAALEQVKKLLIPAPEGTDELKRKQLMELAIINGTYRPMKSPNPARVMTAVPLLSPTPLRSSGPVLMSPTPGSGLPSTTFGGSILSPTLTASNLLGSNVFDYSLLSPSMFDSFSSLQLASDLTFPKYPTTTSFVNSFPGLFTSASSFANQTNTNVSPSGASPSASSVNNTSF
Chain of FAD-linked sulfhydryl oxidase ALR (P55789 whole entry): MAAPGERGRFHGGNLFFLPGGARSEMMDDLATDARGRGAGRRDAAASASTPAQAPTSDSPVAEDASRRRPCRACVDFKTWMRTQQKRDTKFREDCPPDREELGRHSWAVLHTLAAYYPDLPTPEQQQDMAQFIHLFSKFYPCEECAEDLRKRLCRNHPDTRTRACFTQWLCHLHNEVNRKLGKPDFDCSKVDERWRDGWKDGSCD
Chain of Phospholipase A2 (P04054 whole entry): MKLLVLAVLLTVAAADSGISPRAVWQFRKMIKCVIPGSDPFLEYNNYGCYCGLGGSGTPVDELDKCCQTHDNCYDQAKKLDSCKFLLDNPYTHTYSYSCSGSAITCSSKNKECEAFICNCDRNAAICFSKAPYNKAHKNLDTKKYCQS
Chain of Neuropeptides B/W receptor type 1 (P48145 whole entry): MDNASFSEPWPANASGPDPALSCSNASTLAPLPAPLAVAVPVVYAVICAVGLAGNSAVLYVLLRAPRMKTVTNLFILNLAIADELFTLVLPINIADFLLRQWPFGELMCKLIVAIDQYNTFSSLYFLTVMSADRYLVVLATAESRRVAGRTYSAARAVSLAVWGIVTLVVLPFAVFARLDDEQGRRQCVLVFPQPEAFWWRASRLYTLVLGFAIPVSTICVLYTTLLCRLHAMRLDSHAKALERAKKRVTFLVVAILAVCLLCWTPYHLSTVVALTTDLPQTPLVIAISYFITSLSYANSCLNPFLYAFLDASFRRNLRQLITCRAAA
Chain of Melanin-concentrating hormone receptor 1 (Q99705 whole entry): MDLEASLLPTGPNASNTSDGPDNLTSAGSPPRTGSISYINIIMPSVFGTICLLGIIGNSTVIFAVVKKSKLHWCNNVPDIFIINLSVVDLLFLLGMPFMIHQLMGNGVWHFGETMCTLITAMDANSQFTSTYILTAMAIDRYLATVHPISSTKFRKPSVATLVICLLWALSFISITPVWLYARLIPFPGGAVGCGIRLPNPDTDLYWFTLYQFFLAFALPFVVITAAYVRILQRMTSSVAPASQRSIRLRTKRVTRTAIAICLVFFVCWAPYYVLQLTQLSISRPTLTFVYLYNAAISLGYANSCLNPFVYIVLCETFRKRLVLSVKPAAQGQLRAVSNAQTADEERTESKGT
Chain of ORF 73 (O40947 whole entry): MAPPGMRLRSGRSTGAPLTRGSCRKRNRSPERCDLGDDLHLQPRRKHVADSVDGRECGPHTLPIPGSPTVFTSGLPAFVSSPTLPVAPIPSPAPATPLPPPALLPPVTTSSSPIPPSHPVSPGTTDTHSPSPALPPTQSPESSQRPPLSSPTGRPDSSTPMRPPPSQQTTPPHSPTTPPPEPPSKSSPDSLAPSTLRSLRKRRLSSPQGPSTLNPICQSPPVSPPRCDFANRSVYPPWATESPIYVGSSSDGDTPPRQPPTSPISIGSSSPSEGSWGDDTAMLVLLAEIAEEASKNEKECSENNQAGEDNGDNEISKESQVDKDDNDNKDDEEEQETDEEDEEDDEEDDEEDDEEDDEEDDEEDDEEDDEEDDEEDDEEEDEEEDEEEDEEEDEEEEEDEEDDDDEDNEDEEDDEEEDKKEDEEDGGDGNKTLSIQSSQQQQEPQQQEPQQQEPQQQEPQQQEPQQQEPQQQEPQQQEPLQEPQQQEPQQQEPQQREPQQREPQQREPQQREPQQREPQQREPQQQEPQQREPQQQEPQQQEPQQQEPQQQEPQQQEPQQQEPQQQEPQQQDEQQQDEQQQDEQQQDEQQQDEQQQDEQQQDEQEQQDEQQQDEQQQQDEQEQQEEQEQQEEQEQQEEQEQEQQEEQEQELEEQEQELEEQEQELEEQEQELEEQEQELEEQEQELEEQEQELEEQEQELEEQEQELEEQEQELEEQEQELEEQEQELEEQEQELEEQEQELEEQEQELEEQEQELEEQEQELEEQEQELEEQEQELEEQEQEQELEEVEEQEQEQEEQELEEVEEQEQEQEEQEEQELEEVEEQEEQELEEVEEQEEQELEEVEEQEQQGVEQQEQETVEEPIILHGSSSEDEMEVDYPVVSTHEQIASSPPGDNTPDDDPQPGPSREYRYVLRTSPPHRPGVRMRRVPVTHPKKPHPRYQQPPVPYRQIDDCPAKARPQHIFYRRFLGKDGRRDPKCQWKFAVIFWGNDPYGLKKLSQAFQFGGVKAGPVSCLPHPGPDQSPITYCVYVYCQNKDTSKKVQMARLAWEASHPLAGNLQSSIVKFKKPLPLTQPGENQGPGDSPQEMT
Chain of Protein Rev (P04618 whole entry): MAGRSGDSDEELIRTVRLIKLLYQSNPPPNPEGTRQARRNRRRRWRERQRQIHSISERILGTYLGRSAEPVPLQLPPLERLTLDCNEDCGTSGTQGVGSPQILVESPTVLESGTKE

As a reminder, the EC50 is the concentration that produces a half-maximal response. One may read the AC50 as the midpoint of the concentration-response curve, whichever way the signal moves. As a reminder, the IC50 is the midpoint of a concentration-inhibition curve. As for `O=C(O)C(c1ccccc1)N1C(=O)/C(=C\c2ccc(-c3cccc(Cl)c3)o2)SC1=S` (configuration not stated), the EC50 is 2.37 µM (active) in assay [1]; 1.37 µM (active) on Streptokinase A; 2.23 µM (active) in the assay with Streptococcus; 50.3 µM (inactive) in [3]; 97.1 µM (inactive) in [4]. Also, the figures for the AC50 (with Salmon testes DNA; in assay [2]) were 40.7 µM (active) and 3.54 µM (active), respectively. Moreover, the IC50 is 4.41 µM (active) at Cysteine protease ATG4B and 11.2 µM (active) on Phospholipase A2.
For the compound `COc1ccc(N(C(=O)CCl)C(C(=O)NCS(=O)(=O)c2ccc(C)cc2)c2cccs2)cc1Cl` (configuration not stated), the AC50 in assay [5] is 0.208 µM (active); in [6], 0.083 µM (active); in assay [7], 0.089 µM (active); in assay [8], 0.347 µM (active).
`COc1cc(/C=C(\C#N)C(=O)Nc2ccc(C(=O)O)cc2)ccc1OC(=O)c1cccc(F)c1`: the IC50 in [9] was 5.86 µM (active); in [10], 12 µM (not active).
In the case of `COC(=O)c1ccc2c(c1)SC1=C(O)CCCC1=N2`, the IC50 on Protein Rev is > 75.4 µM (not active); in assay [11] it was 6.11 µM (active); at Fibrinogen beta chain [12], 17.9 µM (inactive); on Fibrinogen beta chain [13], > 83.3 µM (inactive).
As to `O=C(Cn1nc(Cc2ccncc2)c2ccccc2c1=O)N1CCN(C(=O)c2ccco2)CC1`, the AC50 at ORF 73 was 11.4 µM (active).
For the compound `Cc1c(O)n2c(nc1=O)sc1ccccc12`, the EC50 in [14] and in assay [15] was > 55.7 µM (not active) each time.
